Results as given in a compilation of properties of binary mixtures (doi:10.1007/s10953-017-0695-7).

Experiment: xn = mol fraction of the nth substance listed
Conditions: 101 kPa

CCCCCC[n+]1ccn(C)c1.[Cl-] + OCCO
viscosity [mPa·s]
Conditions	293.15 K	303.15 K	313.15 K	323.15 K	333.15 K
x1 = 0.003	–	14.18	9.77	7.07	5.21
x1 = 0.0061	21.52	14.23	9.86	–	–
x1 = 0.0124	21.64	14.24	9.94	7.17	5.33
x1 = 0.0188	21.81	–	–	7.24	5.4
x2 = 0	11400	–	1718	–	398
x2 = 0.1526	3449	861	629	326	–
x2 = 0.3167	774	385	214.7	127.1	79.6
x2 = 0.3999	387	210.7	124.2	77.3	51.2
x2 = 0.4977	–	102.8	65.1	42.5	–
x2 = 0.6002	–	53	35.51	–	18.06
x2 = 0.6987	46.8	30.76	–	–	–
x2 = 0.8026	29.46	19.81	13.95	10.18	7.71
x2 = 0.8897	24.2	16.2	–	8.37	6.32
x2 = 0.8998	23.77	16.02	11.25	–	6.18
x2 = 0.9152	23.12	15.52	10.98	7.98	6
x2 = 0.931	22.64	15.24	10.67	7.73	5.82
x2 = 0.9532	22.13	14.78	10.37	7.51	–
x2 = 0.9642	22.02	14.71	–	–	5.53
x2 = 0.9761	21.83	14.45	–	7.27	5.46

CCCCCO + CCCCCC[n+]1ccn(C)c1.[Cl-]
x1 = 1
Conditions	viscosity [mPa·s]
293.15 K	3.99
313.15 K	2.29
323.15 K	1.79
333.15 K	1.39

OCCO + CCCCCC[n+]1ccn(C)c1.[Cl-]
x1 = 1
Conditions	viscosity [mPa·s]
293.15 K	21.35
303.15 K	14.1
313.15 K	9.74
323.15 K	7.02
333.15 K	5.2

CCCCCC[n+]1ccn(C)c1.[Cl-] + CCCCCO
viscosity [mPa·s]
Conditions	293.15 K	303.15 K	313.15 K	323.15 K	333.15 K
x1 = 0.0042	4.14	–	–	1.85	1.46
x1 = 0.0088	–	3.23	2.49	1.92	1.54
x1 = 0.0166	4.56	–	2.62	2.03	1.61
x2 = 0	11400	4206	1718	–	398
x2 = 0.1514	3550	–	803	418	192.5
x2 = 0.2971	1014	491	–	148.2	91
x2 = 0.5018	182.4	108.3	68.1	44.92	31.33
x2 = 0.6066	75.1	48.8	32.87	23.14	16.9
x2 = 0.7018	31.71	22.14	16.01	11.88	–
x2 = 0.8012	14.74	10.86	–	–	4.99
x2 = 0.849	–	7.85	6.03	4.68	3.76
x2 = 0.8825	8.5	6.37	4.92	3.87	3.06
x2 = 0.9494	5.73	4.29	3.28	2.56	2.02
x2 = 0.9749	4.83	3.63	2.81	2.17	1.71
